From patent publication US20240360154A1, “AROYL SUBSTITUTED TRICYCLIC COMPOUND, PREPARATION METHOD THEREFOR AND USE THEREOF” (GENFLEET THERAPEUTICS (SHANGHAI) INC., priority 2020, published 2024)
Where a name gives a salt, the structure may show the parent alone.

Columns and labels:
[1] = molecular target: BTK (Homo sapiens (Human), UniProt Q06187); assay: BTK enzyme experiment (ADP-Glo kinase assay); assay type: biochemical; settings: 10 nM BTK, ATP 125 μM, Poly(Glu4, Tyr1), 90 minutes at 20° C.; read-out: BTK(WT) IC50
Method: (§1) A 3-fold gradient concentration stock solution of 1000× compound was prepared using DMSO and diluted 100-fold to 10× compound stock solution using reaction buffer (50 mM HEPES, pH 7.5, 0.0015% Briji-35, 2 mM DTT, 10 mM MgCl2), and the 10× compound stock solution was transferred to a 384-well plate. Enzyme reactions were set up with BTK Kinase Enzyme System (Promega Catalog #V2941) or BTK (C481S) Kinase Enzyme System (Promega Catalog #VA7033). First, a 2× enzyme solution containing 10 nM BTK or 10 nM BTK C481S was prepared with reaction buffer and added to the plate, and incubated with the compound for 10 minutes. […] Finally, the kinase activity was detected according to the experimental steps provided by ADP-Glo™ kinase Assay Kit (Promega, #V9101), and finally the luminescence chemiluminescence value was read. DMSO was used as the maximum signal value, and adding no enzyme was used as the minimum signal value. The inhibition rate of the compound (%)=(maximum signal value−compound signal value)/(maximum signal value−minimum signal value)×100% was calculated. The compound gradient dilution concentration and the corresponding inhibition rate of the enzyme activity were fit by using XLFit four-parameter method, and IC50 value was calculated.

[2] = molecular target: BTK (C481S) (Homo sapiens (Human), UniProt Q06187, C481S); assay: BTK C481S enzyme experiment (ADP-Glo kinase assay); assay type: biochemical; settings: 10 nM BTK C481S, ATP 125 μM, Poly(Glu4, Tyr1), 90 minutes at 20° C.
Method: as §1

[3] = test system: TMD-8 cells; assay: TMD-8 proliferation inhibition experiment; assay type: cell-based; settings: human diffuse large B lymphoma cells, three days incubation
Method: TMD-8 cells are human diffuse large B lymphoma (Mingzhou Bio, MZ-0832), cultured in 10% FBS+1% PS 1640 medium; OCI-LY10 is human diffuse large B lymphoma (BeNa Culture Collection, BNCC337742), cultured in 10% FBS+1% PS IMDM. Day 1: Cells at logarithmic growth phase were taken, counted and inoculated 600 TMD-8 or 2000 OCI-LY10 cells in a 384-well cell culture plate and cultured overnight. Day 2: A 3-fold gradient concentration stock solution of 400× compound was prepared with DMSO, and diluted 40-fold to a 10× compound stock solution with culture medium. The 10× compound stock solution was added to each cell culture well with a final concentration of 1× compound stock solution and a DMSO content of 0.25%. DMSO was used as experimental control, and culture medium was used as blank control. The incubation was continued for three days after compound addition. On the fifth day, 25 μL of […] was added to each well, mixed well and incubated for 10 minutes, then the chemiluminescence value (RLU value) was read. The cell proliferation inhibition rate (%)=(RLUcontrol−RLUcompound)/(RLUcontrol−RLUblank)×100% was calculated. The compound gradient dilution concentration and the corresponding cell proliferation inhibition rate were fit by using XLFit four-parameter method, and IC50 value was calculated.

BTK, sequence (Q06187 whole entry): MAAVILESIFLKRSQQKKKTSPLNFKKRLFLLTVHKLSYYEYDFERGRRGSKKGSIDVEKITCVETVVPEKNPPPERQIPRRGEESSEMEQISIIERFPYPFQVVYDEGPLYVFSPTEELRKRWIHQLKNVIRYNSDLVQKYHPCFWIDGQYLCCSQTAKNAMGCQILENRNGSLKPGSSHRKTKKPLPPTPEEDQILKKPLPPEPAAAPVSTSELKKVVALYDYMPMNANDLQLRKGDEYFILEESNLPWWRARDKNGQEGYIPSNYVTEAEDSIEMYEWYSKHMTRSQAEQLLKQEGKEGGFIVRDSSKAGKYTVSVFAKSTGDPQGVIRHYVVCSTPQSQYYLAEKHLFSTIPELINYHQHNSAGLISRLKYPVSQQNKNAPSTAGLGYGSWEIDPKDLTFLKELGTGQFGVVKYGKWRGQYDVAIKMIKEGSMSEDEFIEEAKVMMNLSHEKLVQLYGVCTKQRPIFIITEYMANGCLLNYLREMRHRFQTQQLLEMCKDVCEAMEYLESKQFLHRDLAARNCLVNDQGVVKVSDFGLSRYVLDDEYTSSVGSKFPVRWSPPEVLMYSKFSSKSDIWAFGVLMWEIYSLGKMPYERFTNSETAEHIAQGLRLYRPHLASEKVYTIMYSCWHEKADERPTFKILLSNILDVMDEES
BTK (C481S), sequence (Q06187 whole entry C481S): as the sequence (Q06187 whole entry) above, with C481S counted along it

Row | Compound | IC50 [1] | IC50 [2] | IC50 ([3]; Homo sapiens, TMD8, 72 h) | IC50 [3]
1 | COC1CCC2(C1)Nc1c(cnc3[nH]cc(C(=O)c4ccc(Oc5ccccc5)cc4Cl)c13)NC2=O (single isomer, unassigned) [Z25-1, 9′-(2-chloro-4-phenoxybenzoyl)-3-methoxy-4′,7′-dihydrospiro[cyclopentane-1,2′-pyrrolo[3′,2′:5,6]pyrido[3,4-b]pyrazin]-3′(1′H)-one] | 32 nM | 19.8 nM | 101 nM | –
2 | COC1CCC2(C1)Nc1c(cnc3[nH]cc(C(=O)c4ccc(Oc5ccccc5)cc4Cl)c13)NC2=O (single isomer, unassigned) [Z25-3, 9′-(2-chloro-4-phenoxybenzoyl)-3-methoxy-4′,7′-dihydrospiro[cyclopentane-1,2′-pyrrolo[3′,2′:5,6]pyrido[3,4-b]pyrazin]-3′(1′H)-one] | 22.4 nM | 16.4 nM | – | 108 nM
3 | COC1CCC2(C1)Nc1c(cnc3[nH]cc(C(=O)c4ccc(Oc5ccccc5)cc4Cl)c13)NC2=O (single isomer, unassigned) [Z25-3a, 9′-(2-chloro-4-phenoxybenzoyl)-3-methoxy-4′,7′-dihydrospiro[cyclopentane-1,2′-pyrrolo[3′,2′:5,6]pyrido[3,4-b]pyrazin]-3′(1′H)-one] | 15.4 nM | 7.6 nM | – | 102 nM
4 | COC1CCC2(C1)Nc1c(cnc3[nH]cc(C(=O)c4ccc(Oc5ccccc5)cc4Cl)c13)NC2=O (single isomer, unassigned) [Z25-3b, 9′-(2-chloro-4-phenoxybenzoyl)-3-methoxy-4′,7′-dihydrospiro[cyclopentane-1,2′-pyrrolo[3′,2′:5,6]pyrido[3,4-b]pyrazin]-3′(1′H)-one] | 15.1 nM | 10 nM | – | 140 nM
5 | N#C[C@H]1CC[C@@]2(C1)Nc1c(cnc3[nH]cc(C(=O)c4ccc(Oc5ccccc5)cc4Cl)c13)NC2=O (single isomer, unassigned) [Z26-2] | 23.6 nM | 17.5 nM | – | 159 nM
6 | N#C[C@H]1CC[C@@]2(C1)Nc1c(cnc3[nH]cc(C(=O)c4ccc(Oc5ccccc5)cc4Cl)c13)NC2=O (single isomer, unassigned) [Z26-3] | 34 nM | 20.6 nM | – | 216 nM
7 | O=C(c1ccc(Oc2ccccc2)cc1Cl)c1c[nH]c2ncc3c(c12)N[C@@]1(CC[C@H](CO)OC1)C(=O)N3 (single isomer, unassigned) [Z41-2b] | 7.9 nM | 6.1 nM | – | 101 nM
8 | CN1C(=O)[C@](C)(CO)Nc2c1cnc1[nH]cc(C(=O)c3ccc(Oc4ccccc4)cc3Cl)c21 (single isomer, unassigned) [Z51-1] | 52.3 nM | 34.3 nM | – | 280 nM
9 | CN1C(=O)[C@@](C)(CO)Nc2c1cnc1[nH]cc(C(=O)c3ccc(Oc4ccccc4)cc3Cl)c21 (single isomer, unassigned) [Z51-2] | 32.6 nM | 20.8 nM | – | 154 nM
10 | COCC1(C)Nc2c(cnc3[nH]cc(C(=O)c4ccc(Oc5ccccc5)cc4Cl)c23)N(C)C1=O (single isomer, unassigned) [Z52-1, 9-(2-chloro-4-phenoxybenzoyl)-2-(methoxymethyl)-2,4-dimethyl-1,2,4,7-tetrahydro-3H-pyrrolo[3′,2′:5,6]pyrido[3,4-b]pyrazin-3-one] | 23.8 nM | 24.2 nM | 201 nM | –
11 | [2H]C([2H])([2H])OC[C@@]1(C)Nc2c(cnc3[nH]cc(C(=O)c4ccc(Oc5ccccc5)cc4Cl)c23)NC1=O (single isomer, unassigned) [Z66-2] | 12.7 nM | 8.6 nM | 299 nM | –
12 | COCCOCC1(C)Nc2c(cnc3[nH]cc(C(=O)c4ccc(Oc5ccccc5)cc4Cl)c23)NC1=O (single isomer, unassigned) [Z153-1, 9-(2-chloro-4-phenoxybenzoyl)-2-((2-methoxyethoxy)methyl)-2-methyl-1,2,4,7-tetrahydro-3H-pyrrolo[3′,2′:5,6]pyrido[3,4-b]pyrazin-3-one] | 45.8 nM | 26 nM | 342 nM | –
13 | O=C(c1ccc(Oc2ccccc2)cc1Cl)c1c[nH]c2ncc3c(c12)NC1(CCOC1)C(=O)N3 (stereo not drawn) [Z1, 9′-(2-chloro-4-phenoxybenzoyl)-4,4′,5,7′-tetrahydro-2H-spiro[furan-3,2′-pyrrolo[3′,2′:5,6]pyrido[3,4-b]pyrazin]-3′(1′H)-one] | 41.2 nM | 18.9 nM | 156 nM | –
14 | CN1CCC2(C1)Nc1c(cnc3[nH]cc(C(=O)c4ccc(Oc5ccccc5F)cc4Cl)c13)NC2=O (stereo not drawn) [Z6] | 19.3 nM | 14.1 nM | – | 151 nM
15 | CN1CCC2(C1)Nc1c(cnc3[nH]cc(C(=O)c4ccc(Oc5cccc(F)c5)cc4Cl)c13)NC2=O (stereo not drawn) [Z7] | 28.3 nM | 17.8 nM | – | 258 nM
16 | CN1CCC2(C1)Nc1c(cnc3[nH]cc(C(=O)c4ccc(Oc5ccccc5)cc4Cl)c13)N(C)C2=O (stereo not drawn) [Z8] | 73.6 nM | 27.9 nM | – | 469 nM
17 | O=C(c1ccc(Oc2ccccc2)cc1Cl)c1c[nH]c2ncc3c(c12)NC1(CCN(C(=O)C2CC2)C1)C(=O)N3 (stereo not drawn) [Z10] | 70.2 nM | 25.4 nM | – | 310 nM
18 | CN1CC2(C1)Nc1c(cnc3[nH]cc(C(=O)c4ccc(Oc5ccccc5)cc4Cl)c13)NC2=O [Z11, 9′-(2-chloro-4-phenoxybenzoyl)-1-methyl-4′,7′-dihydrospiro[azetidine-3,2′-pyrrolo[3′,2′:5,6]pyrido[3,4-b]pyrazin]-3′(1′H)-one] | 54.4 nM | 21.3 nM | 372 nM | –
19 | CN1CCC2(C1)Nc1c(cnc3[nH]cc(C(=O)c4ccc(Oc5cc(C(F)(F)F)ccn5)cc4Cl)c13)NC2=O (stereo not drawn) [Z12] | 26.4 nM | 45.8 nM | – | 480 nM
20 | COC[C@@]1(C)Nc2c(cnc3[nH]cc(C(=O)c4ccc(Oc5ccccc5)cc4Cl)c23)NC1=O [Z13-2] | 40 nM | 23.2 nM | – | 183 nM
21 | CC1(C)Nc2c(cnc3[nH]cc(C(=O)c4ccc(Oc5ccccc5)cc4Cl)c23)N(CCO)C1=O [Z15] | 57.4 nM | 71.7 nM | – | 626 nM
22 | COC1CCC2(C1)Nc1c(cnc3[nH]cc(C(=O)c4ccc(Oc5ccccc5)cc4Cl)c13)NC2=O (stereo not drawn) [Z25, 9′-(2-chloro-4-phenoxybenzoyl)-3-methoxy-4′,7′-dihydrospiro[cyclopentane-1,2′-pyrrolo[3′,2′:5,6]pyrido[3,4-b]pyrazin]-3′(1′H)-one] | 6 nM | 4.9 nM | 130 nM | –
23 | CN1C(=O)C(C)(CO)Nc2c1cnc1[nH]cc(C(=O)c3ccc(Oc4ccccc4)cc3Cl)c21 (stereo not drawn) [Z51, 9-(2-chloro-4-phenoxybenzoyl)-2-(hydroxymethyl)-2,4-dimethyl-1,2,4,7-tetrahydro-3H-pyrrolo[3′,2′:5,6]pyrido[3,4-b]pyrazin-3-one] | 36.5 nM | 39.6 nM | 259 nM | –
24 | COCC1(C)Nc2c(cnc3[nH]cc(C(=O)c4ccc(Oc5cc(C)ccn5)cc4Cl)c23)N(C)C1=O (stereo not drawn) [Z65, 9-(2-chloro-4-((4-methylpyridin-2-yl)oxy)benzoyl)-2-(methoxymethyl)-2,4-dimethyl-1,2,4,7-tetrahydro-3H-pyrrolo[3′,2′:5,6]pyrido[3,4-b]pyrazin-3-one formate] | 30.6 nM | 31.2 nM | 509 nM | –
